Data as given in patent publication US20090062206A1 (UNIVERSITY OF SOUTH FLORIDA, priority 2006, published 2009).
Read-outs that look alike come from different tables or passages of the source.

Legend:
[1] = system: human renal-cell carcinoma cells (ATCC CRL-2175); test: Decrease in number of human renal-cell carcinoma cells (cell counting on coverslips); assay type: cell-based; conditions: for number of renal carcinoma cells remaining per high powered field: control 89±7 cells
Experimental: A cell line (ATCC number CRL-2175) of human renal-cell carcinoma cells were purchased from American Type Culture Collection (ATCC, Manassas, Va.). This renal cancer cell line was established by A. Leibovitz in 1972 from a renal-cell carcinoma removed from a person with blood type O, Rh+.
Propagation of these renal cancer cells was in Leibovitz's L-15 medium supplemented with 10% fetal bovine serum (Atlanta Biologicals, Lawrenceville, Ga.) at a temperature of 37° C. in a CO2 free environment as recommended by the ATCC. Cells were dispensed in new flasks with subculturing two to three times per week.
After the renal-cell carcinoma cells were subcultured for 24 hours they were then seeded to coverslips in 24-well plates (Nunclon™, Roskilde, Denmark) with 1 mL of the above media. There were 65,000 cells seeded to each coverslip. After 24 hours, the well plates were washed twice with phosphate-buffered saline to remove the fetal bovine serum. Removal of serum was carried out to completely remove all variables (EGF, etc.) present in serum in order that interpretation of any data obtained would be straightforward. After 24 hours of serum deprivation, media volume was reduced to 250 μL per well with, or without, the respective peptide hormones in dose-response curves with concentrations up to and including 100 μM (1% of this volume). Human renal carcinoma cells were then incubated for various periods of time [24, 48, 72, and 96 hours]. The number of renal carcinoma cells were then counted with a cell counter (Thomas Scientific Swedesboro, N. J.) evaluating ten fields of the microscope slide at x40 along the X-axis with an Olympus BH-2 microscope (Atlanta, Ga.). This evaluation was repeated on six separate occasions with the number of renal carcinoma cells reflecting 60 observations for each group, i.e., 60 observations for controls and 60 observations for each of the six groups with respective peptide hormones. The peptide hormones used in this investigation were from Phoenix Pharmaceuticals, Inc., Belmont, Calif. In the Results section, the number of cancer cells reported is the number of cells in each individual field. Ten fields were examined on each microscope slide. The results of the ten fields were pooled and the average of the ten fields is illustrated in the Results section.
The number of renal carcinoma cells after 24 hours without the addition of any of the peptide hormones averaged 89±7 cells per high powered field when ten fields of the coverslip were evaluated at ×40 along the X-axis with an Olympus BH2 microscope. This evaluation was repeated on six separate occasions, with the above number reflecting 60 observations by two independent investigators of the control group and each of the five groups with the addition of one of the peptide hormones. The same number of observations were done in a seventh group where four of the peptides were added together (each at 1 μM) to determine if they may have an additive effect.

[2] = system: human renal carcinoma cells; test: DNA synthesis by bromodeoxyuridine (BrdU) incorporation into renal carcinoma cells; assay type: cell-based; conditions: 1 μM, incubated 24 hours
From the text: To investigate whether these peptide hormones were inhibiting DNA synthesis, bromodeoxyuridine (BrdU) incorporation into the renal carcinoma cells was utilized as previously described from our laboratory. BrdU was from BD Bioscience, San Jose, Calif.

[3] = human or animal subjects; cited from earlier work
[4] = biological target: NPR-A receptor (Homo sapiens, UniProt P16066); conditions: cited from earlier work
NPR-A receptor, sequence (P16066 33-1061): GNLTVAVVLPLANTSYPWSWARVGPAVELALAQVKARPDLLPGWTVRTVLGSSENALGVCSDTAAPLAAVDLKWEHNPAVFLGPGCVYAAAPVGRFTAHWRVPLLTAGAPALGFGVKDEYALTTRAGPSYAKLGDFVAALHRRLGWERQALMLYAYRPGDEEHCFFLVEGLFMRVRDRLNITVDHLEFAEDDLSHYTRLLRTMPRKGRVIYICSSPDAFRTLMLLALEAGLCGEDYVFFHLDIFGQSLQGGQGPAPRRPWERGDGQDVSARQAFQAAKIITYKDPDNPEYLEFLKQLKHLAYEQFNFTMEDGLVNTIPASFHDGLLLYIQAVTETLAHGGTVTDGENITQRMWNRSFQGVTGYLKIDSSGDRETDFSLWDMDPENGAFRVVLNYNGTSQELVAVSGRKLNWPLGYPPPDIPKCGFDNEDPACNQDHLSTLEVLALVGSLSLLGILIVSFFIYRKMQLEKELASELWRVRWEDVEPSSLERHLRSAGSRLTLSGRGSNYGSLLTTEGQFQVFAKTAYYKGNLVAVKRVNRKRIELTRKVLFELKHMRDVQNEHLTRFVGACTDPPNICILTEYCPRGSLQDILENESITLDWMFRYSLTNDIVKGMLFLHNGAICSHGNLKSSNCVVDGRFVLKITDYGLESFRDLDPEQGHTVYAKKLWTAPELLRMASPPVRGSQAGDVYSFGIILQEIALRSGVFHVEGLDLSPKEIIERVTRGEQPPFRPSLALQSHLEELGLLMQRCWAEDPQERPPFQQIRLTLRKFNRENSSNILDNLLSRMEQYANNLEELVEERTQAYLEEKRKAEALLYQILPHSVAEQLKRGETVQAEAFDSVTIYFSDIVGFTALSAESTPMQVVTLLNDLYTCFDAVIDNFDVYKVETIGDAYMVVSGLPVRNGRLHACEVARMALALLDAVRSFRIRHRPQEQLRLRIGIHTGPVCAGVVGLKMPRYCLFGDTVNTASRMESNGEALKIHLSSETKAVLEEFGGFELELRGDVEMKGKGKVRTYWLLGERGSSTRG

[5] = biological target: NPR-C receptor (Homo sapiens, UniProt P17342); conditions: cited from earlier work
NPR-C receptor, sequence (P17342 27-541): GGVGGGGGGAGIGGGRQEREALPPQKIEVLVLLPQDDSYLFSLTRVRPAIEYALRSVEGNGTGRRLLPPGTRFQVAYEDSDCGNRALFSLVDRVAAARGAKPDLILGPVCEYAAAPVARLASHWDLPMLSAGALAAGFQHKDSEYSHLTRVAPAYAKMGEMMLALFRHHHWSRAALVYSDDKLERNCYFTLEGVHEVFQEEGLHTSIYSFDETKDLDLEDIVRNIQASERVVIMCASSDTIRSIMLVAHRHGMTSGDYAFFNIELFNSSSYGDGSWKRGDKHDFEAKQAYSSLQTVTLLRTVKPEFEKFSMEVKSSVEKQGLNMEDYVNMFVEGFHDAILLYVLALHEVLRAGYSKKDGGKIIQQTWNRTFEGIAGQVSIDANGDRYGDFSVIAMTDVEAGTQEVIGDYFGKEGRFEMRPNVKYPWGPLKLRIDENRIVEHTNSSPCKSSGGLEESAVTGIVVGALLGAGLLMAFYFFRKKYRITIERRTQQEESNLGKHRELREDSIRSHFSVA

[6] = system: prostate adenocarcinoma; conditions: 1 μM; cited from earlier work
[7] = system: small-cell lung cancer cells; conditions: 1 μM; cited from earlier work
[8] = 1 μM, at 48 hours after 24 hour exposure
[9] = 1 μM, at 72 hours after 24 hour exposure
[10] = 1 μM, at 96 hours after 24 hour exposure
[11] = 10 μM, at 48 hours after 24 hour exposure
[12] = 10 μM, at 72 hours after 24 hour exposure
[13] = 10 μM, at 96 hours after 24 hour exposure
[14] = 100 μM, at 48 hours after 24 hour exposure
[15] = 100 μM, at 72 hours after 24 hour exposure
[16] = 100 μM, at 96 hours after 24 hour exposure

| Compound | decrease in number of renal carcinoma cells [1, 8] [%] | decrease in number of renal carcinoma cells [1, 9] [%] | decrease in number of renal carcinoma cells [1, 10] [%] | decrease in number of renal carcinoma cells ([1]; 10 μM, 24 hours) [%] | decrease in number of renal carcinoma cells [1, 11] [%] | decrease in number of renal carcinoma cells [1, 12] [%] | decrease in number of renal carcinoma cells [1, 13] [%] | decrease in number of renal carcinoma cells ([1]; 100 μM, 24 hours) [%] | number of renal carcinoma cells remaining per high powered field ([1]; 100 μM, 24 hours) [cells] | decrease in number of renal carcinoma cells [1, 14] [%] | decrease in number of renal carcinoma cells [1, 15] [%] | decrease in number of renal carcinoma cells [1, 16] [%] | inhibition of DNA synthesis [2] [%] | side effect hypotension [3] | decrease in number of renal carcinoma cells ([1]; 1 μM, 24 hours) [%] | also measured |
| --- | --- | --- | --- | --- | --- | --- | --- | --- | --- | --- | --- | --- | --- | --- | --- | --- |
| LANP: long acting natriuretic peptide, peptide hormone within the 126 amino acid ANP prohormone (NPMYNAVSNADLMDFKNLLDHLEEKMPLED; Long-acting natriuretic peptide; UniProt P01160 26-55, looked up) | 30 | 30 | 24 | 55 | 50 | 47 | 39 | 70 | 26±2 | 70 | 70 | 61 | 70 | never |  |  |
| Urodilatin | 17 | 15 | 10 | 46 | 46 | 43 | 37 | 66 | 30±2 | 65 | 64 | 58 | 65 |  | 24 | cancer cells killed (maximum) ([1]; within 24 hours, concentration not given): up to 81%; binding curves compared with ANP [4]: superimposable with ANP; binding curves compared with ANP ([4]; listed as urodilatin): nearly superimposable binding curves; binding curves compared with ANP [5]: superimposable with ANP; binding curves compared with ANP ([5]; listed as urodilatin): nearly superimposable binding curves |
| vessel dilator: peptide hormone within the 126 amino acid ANP prohormone synthesized in the heart (EVVPPQVLSEPNEEAGAALSPLPEVPPWTGEVSPAQR; Vessel dilator; UniProt P01160 56-92, looked up) | 55 | 51 | 43 | 62 | 66 | 64 | 55 | 81 | 17±4 | 81 | 80 | 68 | 84 | never | 59 |  |
| CC[C@H](C)[C@@H]1NC(=O)[C@H](CCCNC(=N)N)NC(=O)[C@H](CC(=O)O)NC(=O)[C@H](CCSC)NC(=O)[C@H](CCCNC(=N)N)NC(=O)CNC(=O)CNC(=O)[C@H](Cc2ccccc2)NC(=O)[C@@H](NC(=O)[C@H](CO)NC(=O)[C@H](CO)NC(=O)[C@H](CCCNC(=N)N)NC(=O)[C@H](CCCNC(=N)N)NC(=O)[C@H](CC(C)C)NC(=O)[C@@H](N)CO)CSSC[C@@H](C(=O)N[C@@H](CC(N)=O)C(=O)N[C@@H](CO)C(=O)N[C@@H](Cc2ccccc2)C(=O)N[C@@H](CCCNC(=N)N)C(=O)N[C@@H](Cc2ccc(O)cc2)C(=O)O)NC(=O)CNC(=O)[C@H](CC(C)C)NC(=O)CNC(=O)[C@H](CO)NC(=O)[C@H](CCC(N)=O)NC(=O)[C@H](C)NC(=O)CNC1=O [ANP] |  |  |  |  |  |  |  |  |  |  |  |  | 77 | observed |  |  |
| kaliuretic peptide: peptide hormone within the 126 amino acid ANP prohormone synthesized in the heart (SSDRSALLKSKLRALLTAPR; Kaliuretic peptide; UniProt P01160 104-123, looked up) | 35 | 31 | 25 | 54 | 52 | 47 | 40 | 74 | 23±3 | 76 | 71 | 64 | 74 | never | 39 | decrease in cancer cell number [6]: 30%; decrease in cancer cell number [7]: 30% |
